Here are results for 1 molecule from PMC12009420, “Dynamically chiral phosphonic acid-type metallo-β-lactamase inhibitors” (Communications Chemistry, 2025).

Like-named read-outs stand apart in the source and are kept apart here.

In general, IC50 refers to the point on the concentration scale where inhibition reaches its midpoint. Broadly, the CC50 is the concentration that lowers cell viability or growth by half. The term Ki denotes the equilibrium dissociation constant of an inhibitor or competing ligand from its target.

For one data set, the target named is T1, 15N-labeled NDM-1 (Klebsiella pneumoniae, UniProt C7C422).
T1 construct: made in house
Kind of data set: 1H,15N-HSQC titration of NDM-1. In kind it is binding. Particulars: 10 equivalents of compound, 600 MHz, pH 7.0, 25 °C. The method, then: The ^1H, ^15N-HSQC spectra for the titration experiments were recorded on a Bruker Avance Neo 600 MHz spectrometer equipped with a 5 mm TCI cryogenic probe at 25 °C. The U-[^15N]-labeled VIM-2 was prepared in a buffer of 20 mM KPO4, 0.1 mM ZnCl2, at pH 7.0, containing 85% H2O/15% D2O at a concentration of 0.25 mM. The U-[^15N]-labeled NDM-1 was used in a buffer of 20 mM HEPES, 0.1 mM ZnCl2, at pH 7.0, containing 85% H2O/15% D2O at a concentration of 0.25 mM. The ligands 5d, 5g, 5i, 5j (for VIM-2 titrations) and 5 f (for NDM-1 titration) were dissolved in the same buffer as the corresponding enzymes. Spectra were recorded using solvent suppression, 1024 points in f1, 16 transients, 512 increments in f2 and a relaxation delay of 0.2 s. The titrations were carried out with 0, 0.25, 0.50, 1.00, 1.50, 2.25, 3.00, 4.00, 5.00, 7.00, 10.0 equivalents of the inhibitors. […]
Chemical shift perturbation values (CSP, ΔδNH) were calculated as the weighted average of
the chemical shift changes in f1 (ΔδN) and f2 (ΔδH) dimensions using the following equation 8:
∆δ = √∆δ 2 + ( N ); R = 6.5 […]

The target in another data set is GIM-1 (Pseudomonas aeruginosa, UniProt Q704V1). Kind of data set: Enzymatic metallo-β-lactamase assay on purified GIM-1. It counts as biochemical. The method, then: (§1) A few inhibitors were tested up to 1600 μM to ensure nearly complete inhibition. Solutions of 100 μL consisting of buffer, purified enzyme (1 nM for GIM-1 and VIM-2, 5 nM for NDM-1), inhibitor and reporter substrate nitrocefin (15 μM for VIM-2, 2 μM for GIM-1) or imipenem (30 μM for NDM-1) were incubated in triplicates on a 96 well plate for 5 min at 25 °C. Buffer solution consisted of 50 mM HEPES pH 7.2, 50 μM ZnSO4 and 0.4 mg/ml bovine serum albumine. Inhibitors were dissolved in DMSO but diluted to assure <2% DMSO in measured assay. Absorbance was measured at 482 nm (nitrocefin) and 300 nm (imipenem) on a SpectraMax M4 spectrophotometer. The initial velocity at each inhibitor concentration was analyzed in GraphPad Prism v9.3.1 and fitted to dose-response curves by non-linear regression (log [inhibitor] vs response) used to calculate IC50 (Supplementary Tables S2–5).

Another data set in a line: MTT cytotoxicity assay. Particulars: human, HepG2 cells. It counts as cell-based. The procedure: Cytotoxic activity of the compounds was measured through the MTT colorimetric assay as previously described[60] using the Colorimetric (MTT) Kit for Cell Survival and Proliferation (Merck/Millipore; Darmstadt, Germany). HepG2 cells (human hepatocellular carcinoma cell line) were kept in penicillin/streptomycin-free medium overnight and then they were treated with the compounds for 24 h. Subsequently, the MTT reagent was added to the cells and after 3 h of incubation, MTT-derived formazan crystals were solubilized in acidified isopropanol (0.1 mL isopropanol with 0.04 N HCl). Absorbance was measured with multiscan spectrophotometer (Thermo Fisher Scientific) at 530 nm test and 630 nm reference wavelengths. Cell viability was expressed as the percentage of viable, untreated cells. CC50 values were determined with GraphPad Prism software (v9.3.1) and adjusted to dose-response curves by non-linear regression (Supplementary Table S7).
8. Cytotoxocity against HepG2 cells
Table S7. CC50 values and viability curves of metallo-β-lactamase inhibitors tested on HepG2 […]
cells. […]
range. Data are shown as % via bility values ± SEM (n=4). Calculations were done using […]
Inhibitors CC50 (μM) HepG2 […]
A general note: Tetrazolium assays rely on reduction of a dye to a coloured formazan, in cell work by metabolically active cells.

Another data set addresses NDM-1 (Klebsiella pneumoniae, UniProt C7C422). Kind of data set: Enzymatic metallo-β-lactamase assay on purified NDM-1. In kind it is biochemical. The procedure:
as §1

Data set [1] is described as follows: Long term stability in buffer with 2.5% DMSO (LC-MS). It counts as physicochemical. Particulars: 20 mM KPO4, 0.1 mM ZnCl2, pH 7.0 + 2.5% DMSO; LC-MS 254 nm. An excerpt:
Reagents, reactants, solvents and drying agents for synthesis, work-up and purification were purchased from commercial vendors (Sigma-Aldrich, VWR, Merck, Fluorochem, Thermo Fisher Scientific, Solveco), and if not stated otherwise they were used without further purification. Reactions and long term stability of the final compounds in buffer were monitored using LC-MS (Agilent 1260 Infinity II) equipped with an ESI-Q detector (Infinitylab LC-MSD) using Agilent InfinityLab Poroshell 120 C18 columns (2.7 μm, ϕ 2.1 mm L 50 mm or 2.7 μm, ϕ 4.6 mm L 50 mm). The intermediates were purified using VWR silica gel 60 (40–63 μm) with a Biotage Isolera One flash column chromatography instrument. The final products were purified with preparative RP-HPLC (VWR LaPrep P110) with single wavelength detection (254 nm), using a Kinetex C8 column (5 μm, 100 Å, ϕ 21.2 mm L 250 mm) and gradients of CH3CN/H2O + 0.1% formic acid as the mobile phase at a 10 mL/min flow rate. Analytical HPLC data were acquired on a VWR LaChrome ELITE system using an ACE3 C8 (3 μm, 300 Å, ϕ 3.0 mm L 100 mm) or a Kinetex C18 columns (5 μm, 100 Å, ϕ 3.0 mm L 150 mm). NMR spectra were recorded on a Varian Agilent MR400-DD2 400 MHz spectrometer equipped with a OneNMR probe, Bruker Avance Neo 500 MHz spectrometer equipped with a cryogenic TXO probe, or a Bruker Avance Neo 600 MHz spectrometer equipped with a TCI cryogenic probe. The chemical shifts are reported using the residual solvent signal as an indirect reference to TMS.
4. Long term stability of the final compounds in buffer with 2.5% DMSO
The long term stability of the final compounds in buffer (20 mM KPO4, 0.1 mM ZnCl2, pH 7.0 + 2.5% DMSO) were monitored using LC-MS (Agilent 1260 Infinity II) equipped with an ESI-Q detector (Infinitylab LC-MSD) using Agilent InfinityLab Poroshell 120 C18 column (2.7 μm, ϕ 4.6 mm L 50 mm) at 254 nm with a 7 min long gradient method (5% to 95% CH3CN) of CH3CN/H2O + 0.1% formic acid as the mobile phase at a 1.0 mL/min flow rate. The samples were measured right after dissolving them in buffer, and after 1 month of keeping the same samples dissolved in the same buffer. The main peaks (> 95%) and impurities with > 1% are […]
Figure S14. Compound 5a right after dissolving it in buffer.
Figure S15. Compound 5a kept in buffer for 1 month. […]

Another data set has as its target VIM-2 (Escherichia coli, UniProt Q5U7L7). In words: Enzymatic metallo-β-lactamase assay on purified VIM-2. It counts as biochemical. The method, then:
as §1

Sequence of NDM-1 (C7C422 29-270, looked up, species assumed): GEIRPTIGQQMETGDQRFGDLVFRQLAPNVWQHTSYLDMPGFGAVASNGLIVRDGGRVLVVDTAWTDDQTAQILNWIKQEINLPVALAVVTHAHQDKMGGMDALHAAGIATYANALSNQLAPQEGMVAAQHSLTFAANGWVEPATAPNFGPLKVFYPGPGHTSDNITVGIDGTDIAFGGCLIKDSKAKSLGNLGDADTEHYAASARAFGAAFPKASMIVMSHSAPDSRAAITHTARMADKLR
Sequence of GIM-1 (Q704V1 entry or part of it): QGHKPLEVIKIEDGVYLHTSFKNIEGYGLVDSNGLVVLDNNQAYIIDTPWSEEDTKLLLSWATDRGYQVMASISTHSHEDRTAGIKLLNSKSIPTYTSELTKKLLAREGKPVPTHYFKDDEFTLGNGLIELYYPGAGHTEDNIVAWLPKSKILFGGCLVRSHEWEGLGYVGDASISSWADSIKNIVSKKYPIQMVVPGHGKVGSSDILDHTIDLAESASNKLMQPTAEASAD
T1 sequence (C7C422 29-270, looked up): as the sequence (C7C422 29-270, looked up, species assumed) above

Regarding `O=C(NC(c1ccccc1O)P(=O)(O)O)c1csc2c1CCCC2` (stereo not shown) [5f], the “Mean chemical shift perturbation, NDM-1” value on 15N-labeled NDM-1 was determined as 0.05 ppm. Besides, the “logIC50 GIM-1” value on GIM-1 (log of IC50, ± SEM of logIC50) is on record as 1.71 ± 0.10 μM. Also, the concentration for half-maximal inhibition (IC50) against GIM-1 (purified enzyme 1 nM, nitrocefin 2 μM, pH 7.2, 25 °C) worked out at 52 µM; against NDM-1 (purified enzyme 5 nM, imipenem 30 μM, pH 7.2, 25 °C), 30 µM; on VIM-2 (purified enzyme 1 nM, nitrocefin 15 μM, pH 7.2, 25 °C) it was 48 µM. Moreover, the CC50 at 24 h in “MTT cytotoxicity assay” (HepG2, MTT, read-out: CC50 (in viability curve)) came to 4800 µM; in the data set “MTT cytotoxicity assay” (MTT, 0.0025 mM - 1mM concentration range, read-out: Cytotoxicity CC50 HepG2), 4800 µM. In addition, the Ki is 128 ± 58 µM at NDM-1 (approximated from Dixon plots (1/v vs [I]) at one constant substrate concentration, ± SE, read-out: Estimated inhibition constant Ki NDM-1) and 40 ± 2 µM at VIM-2 (approximated from Dixon plots (1/v vs [I]) at one constant substrate concentration, ± SE, read-out: Estimated inhibition constant Ki VIM-2). Moreover, the “logIC50 NDM-1” value at NDM-1 (log of IC50, ± SEM of logIC50) is listed as 1.48 ± 0.03 log10(IC50/μM). Moreover, the “main peak Area% kept in buffer for 1 month” value in data set [1] stood at 95.90%. The “main peak Area% right after dissolving in buffer” value in data set [1] is reported as 95.67%. On VIM-2 (log of IC50, ± SEM of logIC50), the “logIC50 VIM-2” value was determined as 1.68 ± 0.05 μM.
